Experimental data: ChEMBL document CHEMBL6120977, “Structure-Affinity-Pharmacokinetics Relationships of Novel 18F-Labeled 1,4-Diazepane Derivatives for Orexin 1 Receptor Imaging” (J Med Chem, 2024)

How the values were obtained:
[1] = Biodistribution in male ddY mouse lung administered intravenously and measured at 60 mins postinjection by gamma counter analysis; format: ADME, organism-based; details: in vivo, iv, 1 h
[2] = Biodistribution in male ddY mouse heart administered intravenously and measured at 60 mins postinjection by gamma counter analysis; format: ADME, organism-based; details: in vivo, iv, 1 h
[3] = Biodistribution in male ddY mouse bone administered intravenously and measured at 30 mins postinjection by gamma counter analysis; format: ADME, organism-based, Bone element; details: in vivo, iv, 0.5 h
[4] = Biodistribution in male ddY mouse stomach administered intravenously and measured per organ at 2 mins postinjection by gamma counter analysis; format: ADME, organism-based; details: in vivo, iv
[5] = Biodistribution in male ddY mouse blood administered intravenously and measured at 10 mins postinjection by gamma counter analysis; format: ADME, organism-based; details: in vivo, iv
[6] = Biodistribution in male ddY mouse stomach administered intravenously and measured per organ at 60 mins postinjection by gamma counter analysis; format: ADME, organism-based; details: in vivo, iv, 1 h
[7] = Biodistribution in male ddY mouse liver administered intravenously and measured at 2 mins postinjection by gamma counter analysis; format: ADME, organism-based; details: in vivo, iv
[8] = Biodistribution in male ddY mouse heart administered intravenously and measured at 2 mins postinjection by gamma counter analysis; format: ADME, organism-based; details: in vivo, iv
[9] = Biodistribution in male ddY mouse heart administered intravenously and measured at 30 mins postinjection by gamma counter analysis; format: ADME, organism-based; details: in vivo, iv, 0.5 h
[10] = Biodistribution in male ddY mouse kidney administered intravenously and measured at 10 mins postinjection by gamma counter analysis; format: ADME, organism-based; details: in vivo, iv
[11] = Biodistribution in male ddY mouse blood administered intravenously and measured at 2 mins postinjection by gamma counter analysis; format: ADME, organism-based; details: in vivo, iv
[12] = Biodistribution in male ddY mouse kidney administered intravenously and measured at 30 mins postinjection by gamma counter analysis; format: ADME, organism-based; details: in vivo, iv, 0.5 h
[13] = Biodistribution in male ddY mouse spleen administered intravenously and measured at 10 mins postinjection by gamma counter analysis; format: ADME, organism-based; details: in vivo, iv
[14] = Biodistribution in male ddY mouse intestine administered intravenously and measured at 10 mins postinjection by gamma counter analysis; format: ADME, organism-based; details: in vivo, iv
[15] = Biodistribution in male ddY mouse kidney administered intravenously and measured at 60 mins postinjection by gamma counter analysis; format: ADME, organism-based; details: in vivo, iv, 1 h
[16] = Biodistribution in male ddY mouse stomach administered intravenously and measured per organ at 10 mins postinjection by gamma counter analysis; format: ADME, organism-based; details: in vivo, iv
[17] = Biodistribution in male ddY mouse lung administered intravenously and measured at 30 mins postinjection by gamma counter analysis; format: ADME, organism-based; details: in vivo, iv, 0.5 h
[18] = Biodistribution in male ddY mouse bone administered intravenously and measured at 10 mins postinjection by gamma counter analysis; format: ADME, organism-based, Bone element; details: in vivo, iv
[19] = Biodistribution in male ddY mouse pancreas administered intravenously and measured at 2 mins postinjection by gamma counter analysis; format: ADME, organism-based; details: in vivo, iv
[20] = Biodistribution in male ddY mouse lung administered intravenously and measured at 2 mins postinjection by gamma counter analysis; format: ADME, organism-based; details: in vivo, iv
[21] = Biodistribution in male ddY mouse stomach administered intravenously and measured per organ at 30 mins postinjection by gamma counter analysis; format: ADME, organism-based; details: in vivo, iv, 0.5 h
[22] = Biodistribution in male ddY mouse brain administered intravenously and measured at 10 mins postinjection by gamma counter analysis; format: ADME, organism-based; details: in vivo, iv
[23] = Biodistribution in male ddY mouse intestine administered intravenously and measured at 30 mins postinjection by gamma counter analysis; format: ADME, organism-based; details: in vivo, iv, 0.5 h
[24] = Biodistribution in male ddY mouse bone administered intravenously and measured at 60 mins postinjection by gamma counter analysis; format: ADME, organism-based, Bone element; details: in vivo, iv, 1 h
[25] = Biodistribution in male ddY mouse pancreas administered intravenously and measured at 60 mins postinjection by gamma counter analysis; format: ADME, organism-based; details: in vivo, iv, 1 h
[26] = Biodistribution in male ddY mouse lung administered intravenously and measured at 10 mins postinjection by gamma counter analysis; format: ADME, organism-based; details: in vivo, iv
[27] = Biodistribution in male ddY mouse heart administered intravenously and measured at 10 mins postinjection by gamma counter analysis; format: ADME, organism-based; details: in vivo, iv
[28] = Biodistribution in male ddY mouse liver administered intravenously and measured at 30 mins postinjection by gamma counter analysis; format: ADME, organism-based; details: in vivo, iv, 0.5 h
[29] = Biodistribution in male ddY mouse intestine administered intravenously and measured at 2 mins postinjection by gamma counter analysis; format: ADME, organism-based; details: in vivo, iv
[30] = Biodistribution in male ddY mouse brain administered intravenously and measured at 2 mins postinjection by gamma counter analysis; format: ADME, organism-based; details: in vivo, iv
[31] = Biodistribution in male ddY mouse brain administered intravenously and measured at 30 mins postinjection by gamma counter analysis; format: ADME, organism-based; details: in vivo, iv, 0.5 h
[32] = Biodistribution in male ddY mouse intestine administered intravenously and measured at 60 mins postinjection by gamma counter analysis; format: ADME, organism-based; details: in vivo, iv, 1 h
[33] = Biodistribution in male ddY mouse spleen administered intravenously and measured at 30 mins postinjection by gamma counter analysis; format: ADME, organism-based; details: in vivo, iv, 0.5 h
[34] = Biodistribution in male ddY mouse spleen administered intravenously and measured at 2 mins postinjection by gamma counter analysis; format: ADME, organism-based; details: in vivo, iv
[35] = Biodistribution in male ddY mouse brain administered intravenously and measured at 60 mins postinjection by gamma counter analysis; format: ADME, organism-based; details: in vivo, iv, 1 h
[36] = Biodistribution in male ddY mouse bone administered intravenously and measured at 2 mins postinjection by gamma counter analysis; format: ADME, organism-based, Bone element; details: in vivo, iv
[37] = Biodistribution in male ddY mouse blood administered intravenously and measured at 30 mins postinjection by gamma counter analysis; format: ADME, organism-based; details: in vivo, iv, 0.5 h
[38] = Biodistribution in male ddY mouse pancreas administered intravenously and measured at 10 mins postinjection by gamma counter analysis; format: ADME, organism-based; details: in vivo, iv
[39] = Biodistribution in male ddY mouse kidney administered intravenously and measured at 2 mins postinjection by gamma counter analysis; format: ADME, organism-based; details: in vivo, iv
[40] = Biodistribution in male ddY mouse blood administered intravenously and measured at 60 mins postinjection by gamma counter analysis; format: ADME, organism-based; details: in vivo, iv, 1 h
[41] = Biodistribution in male ddY mouse pancreas administered intravenously and measured at 30 mins postinjection by gamma counter analysis; format: ADME, organism-based; details: in vivo, iv, 0.5 h
[42] = Biodistribution in male ddY mouse liver administered intravenously and measured at 10 mins postinjection by gamma counter analysis; format: ADME, organism-based; details: in vivo, iv
[43] = Biodistribution in male ddY mouse liver administered intravenously and measured at 60 mins postinjection by gamma counter analysis; format: ADME, organism-based; details: in vivo, iv, 1 h
[44] = Biodistribution in male ddY mouse spleen administered intravenously and measured at 60 mins postinjection by gamma counter analysis; format: ADME, organism-based; details: in vivo, iv, 1 h
Orexin receptor type 2 [45] = molecular target: T1, Orexin receptor type 2 (Homo sapiens, UniProt O43614); assay: Displacement of [3H]EMPA from recombinant human OX2R extracted from HEK293T membrane by radioligand binding assay; format: cell membranes
T1 sequence (O43614 whole entry): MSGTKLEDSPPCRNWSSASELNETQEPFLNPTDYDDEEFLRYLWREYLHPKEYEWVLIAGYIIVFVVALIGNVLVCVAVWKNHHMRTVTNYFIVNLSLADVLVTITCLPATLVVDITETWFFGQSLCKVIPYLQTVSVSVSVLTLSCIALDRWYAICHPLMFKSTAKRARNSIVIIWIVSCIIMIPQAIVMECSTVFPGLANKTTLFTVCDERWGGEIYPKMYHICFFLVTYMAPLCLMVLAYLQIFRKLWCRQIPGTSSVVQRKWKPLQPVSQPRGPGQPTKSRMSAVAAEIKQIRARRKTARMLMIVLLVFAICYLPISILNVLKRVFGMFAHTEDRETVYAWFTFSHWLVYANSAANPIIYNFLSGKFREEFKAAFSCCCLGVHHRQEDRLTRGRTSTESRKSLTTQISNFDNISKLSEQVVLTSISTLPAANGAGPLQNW

Orexin receptor type 2 [46] = molecular target: T1, Orexin receptor type 2; assay: Displacement of […]5IBOM from OX2R (unknown origin) transfected in CHO cells assessed as inhibition constant incubated for 1.5 hrs by automated gamma-counter analysis; format: cell-based
Homo sapiens = species on record: Homo sapiens; assay: Selectivity ratio of IC50 for recombinant human OX2R extracted from HEK293T cell membrane to IC50 for recombinant human OX1R extracted from HEK293T cell membrane
[47] = Selectivity ratio of Ki for OX2R (unknown origin) transfected in CHO cells to Ki for OX1R (unknown origin) transfected in CHO cells; format: cell-based
[48] = molecular target: T2, Orexin/Hypocretin receptor type 1 (Homo sapiens, UniProt O43613); assay: Displacement of […]5IBOM from OX1R (unknown origin) transfected in CHO cells assessed as inhibition constant incubated for 1.5 hrs by automated gamma-counter analysis; format: cell-based
T2 sequence (O43613 whole entry): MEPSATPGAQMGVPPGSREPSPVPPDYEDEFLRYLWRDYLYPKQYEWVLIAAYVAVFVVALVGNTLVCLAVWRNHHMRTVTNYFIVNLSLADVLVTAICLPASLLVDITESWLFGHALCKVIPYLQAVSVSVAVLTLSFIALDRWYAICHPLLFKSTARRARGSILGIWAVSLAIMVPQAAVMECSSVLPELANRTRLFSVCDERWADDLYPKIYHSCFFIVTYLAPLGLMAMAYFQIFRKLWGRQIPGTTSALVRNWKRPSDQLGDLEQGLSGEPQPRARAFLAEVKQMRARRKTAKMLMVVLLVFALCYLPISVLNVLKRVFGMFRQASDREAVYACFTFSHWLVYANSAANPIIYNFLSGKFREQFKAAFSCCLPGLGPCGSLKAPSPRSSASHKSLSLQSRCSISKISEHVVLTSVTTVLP

[49] = molecular target: T2, Orexin/Hypocretin receptor type 1; assay: Displacement of [3H]SB-674042 from recombinant human OX1R extracted from HEK293T membrane by radioligand binding assay; format: cell membranes

Work on Cc1ccc(-n2nccn2)c(C(=O)N2CCCN(c3nc4ccc([18F])cc4s3)C[C@@H]2C)c1 yielded a Drug uptake [1] of 0.48 % ID/g, a Drug uptake [2] of 0.43 % ID/g and a Drug uptake [3] of 13.2 % ID/g. For the same compound, the Drug uptake [4] was 1.15 %ID, the Drug uptake [5] was 2.91 % ID/g and the Drug uptake [6] was 0.87 %ID. The Drug uptake [7] was 13.3 % ID/g, the Drug uptake [8] was 7.6 % ID/g and the Drug uptake [9] was 1.23 % ID/g. It also gave a Drug uptake [10] of 5.23 % ID/g, a Drug uptake [11] of 4.44 % ID/g and a Drug uptake [12] of 1.89 % ID/g. The Drug uptake [13] was 2.38 % ID/g, the Drug uptake [14] was 6.23 % ID/g and the Drug uptake [15] was 0.81 % ID/g. For the same compound, the Drug uptake [16] was 1.65 %ID, the Drug uptake [17] was 1.2 % ID/g and the Drug uptake [18] was 4.94 % ID/g. It also gave a Drug uptake [19] of 5.89 % ID/g, a Drug uptake [20] of 6.58 % ID/g and a Drug uptake [21] of 1.35 %ID. It also gave a Drug uptake [22] of 0.98 % ID/g, a Drug uptake [23] of 11.8 % ID/g and a Drug uptake [24] of 16 % ID/g. For the same compound, the Drug uptake [25] was 0.26 % ID/g, the Drug uptake [26] was 3.43 % ID/g and the Drug uptake [27] was 3.11 % ID/g. It also gave a Drug uptake [28] of 14.7 % ID/g, a Drug uptake [29] of 3.33 % ID/g and a Drug uptake [30] of 2.42 % ID/g. For the same compound, the Drug uptake [31] was 0.22 % ID/g, the Drug uptake [32] was 16.3 % ID/g and the Drug uptake [33] was 0.9 % ID/g. It also gave a Drug uptake [34] of 2.92 % ID/g, a Drug uptake [35] of 0.11 % ID/g and a Drug uptake [36] of 3.11 % ID/g. It also gave a Drug uptake [37] of 1.44 % ID/g, a Drug uptake [38] of 2.95 % ID/g and a Drug uptake [39] of 10.3 % ID/g. The Drug uptake [40] was 1.46 % ID/g, the Drug uptake [41] was 0.67 % ID/g and the Drug uptake [42] was 26.9 % ID/g. For the same compound, the Drug uptake [43] was 7.53 % ID/g and the Drug uptake [44] was 0.42 % ID/g.
In the case of Cc1ccc(-n2nccn2)c(C(=O)N2CCCN(c3nc4cc(Cl)ccc4o3)C[C@@H]2C)c1, the IC50 (Orexin receptor type 2 [45]) is reported as 2 nM, the Ki (Orexin receptor type 2 [46]) is reported as 9.79 nM and the Ratio IC50 (Homo sapiens) is reported as 2.4. The Ratio Ki [47] was 8.71, the Ki [48] was 1.12 nM and the IC50 [49] was 0.83 nM.
